Data on three compounds can be found in patent US11419955B2, “Multimodal silica-based nanoparticles” (Sloan-Kettering Institute for Cancer Research, priority 2009, dated 2022).

In one data set the test system is HUVEC cells. Put plainly: Migration assay, HUVEC cells. The format is cell-based, human. As to conditions: 400 nM particles, 24 hour, before and after addition of inhibitor. On the procedure: M21 cells: M21 cells were seeded (6×10^4 cells/well) using a migration kit (Oris™ Collagen I coated plate, […] TEC). Twenty-four hours after seeding the cells, stoppers in the plate were removed. Fresh culture media (100 μl) supplemented with 0.2% FBS was introduced and cRGDY-PEG-C-dots were added at several concentrations: 25, 100 and 400 nM. Every 24 hours thereafter, media was replaced, along with new particles, over a 72 hr time interval. Prior to incubating the plate at 37° C. overnight, time zero images were captured by the Axiovert 200M microscope (Carl Zeiss) using a 5× (0.15 NA) objective and using a scan slide module in the Metamorph software (molecular devices, PA). Serial microscopy was then performed and images captured every 24 hrs for a total of 96 hours post-incubation. The data were analyzed by using ImageJ software. […]
Phase contrast images captured for migration studies were analyzed using ImageJ 1.45s (National Institutes of Health, rsbweb.nih.gov/ij/) in order to quantify the extent of cell migration (i.e., area closure) for M21 cells and HUVECs. […] The enclosed area for each image was measured (pixels) and used to calculate percent closure relative to time zero (following particle addition and media replacement) as follows: difference in area at a given time point (24, 48, 72 or 96 hr) and at time zero divided by the same area at time zero multiplied by 100. […]

The next data set deals with FAK pathway. Kind of data set: Western blot of FAK pathway signaling in M21 cells. As to conditions: M21 cells exposed to 100 nM cRGDY-PEG-C dots. The class given is cell-based, human. On the procedure:
To determine whether […] integrin-binding cRGDY-PEG-C-dots modulates the activity of these pathways, we treated serum-deprived (0.2% FCS) M21 cells with 100 nM of cRGDY-PEG-C-dots for 2 hrs at 37° C.; serum-deprived cells treated with 0.2% FCS alone served as controls. […] These findings, depicted graphically as normalized intensity ratios, have been expressed relative to their respective total protein levels, and normalized to corresponding values measured under control conditions (FIG. 40C).
M21 cells (1×10^6 cells/six wells plate) were grown in six wells coated with collagen (10 mg/ml), and made quiescent by growing under serum-deprived conditions. The medium was then changed to 0.2% FCS, and different concentrations (25-400 nM) of cRGDY-PEG-C-dots were added (37° C., 0.5-8 hours). […] Protein concentrations were determined by the bicinchoninic acid assay (BCA, Thermo Scientific, Rockford, Ill.). […]
In order to quantify the differences in the size and intensity between Western blot bands, we performed densitometry of phosphorylated and total protein intermediates using Photoshop CS2 (Adobe, San Jose, Calif.). […]
(In general: In western blotting, separated proteins are transferred to a membrane and probed.)

Data set [1] relates to melanoma nodal metastases. The arrangement: species or system Sinclair miniature swine. Conditions: in vivo.
Experimental: Spontaneous melanoma Sinclair miniature swine (10-12 kg, Sinclair Research Center, MO) were injected intravenously with 5 mCi ^18F-fluoro-deoxyglucose (^18F-FDG) for whole-body screening of nodal and/or organ metastases. Miniswine underwent 1-hr dynamic ^18F-FDG PET whole body PET scan using a clinical PET scanner 40 minutes after injection to screen for metastatic disease, followed by CT scan acquisition for anatomic localization. […]
Miniswine were taken to the operating room for identification of nodes. Optical fluorescence imaging was performed using large field-of-view near infrared fluorescence camera system, smaller field-of-view modified endoscope, and a modified stereomacroscope for obtaining higher resolution fluorescence images within the exposed surgical bed. […]
The primary melanoma skin lesion was excised, and an incision made to allow access to the sentinel node(s). […] Specimens were sent for histological assessment for metastases and optical confocal microscopy to confirm the presence of both malignancy and nanoparticle fluorescence.
Following harvest of the sentinel nodes, the entire lymph node basin was excised and further evaluated using histological methods (with immunohistochemical markers for melanoma as needed), fluorescence microscopy, and the hand-held PET probe for correlative purposes. […]
For data set [2] the following is noted: Montet et al. 2006; cited from earlier work.

Turning to `CS(=O)(=O)c1cccc(CNc2nc(Nc3ccc4c(c3)CCC(=O)N4)ncc2C(F)(F)F)c1` [PF-573228], the “Percentage change in mean areas of closure relative to controls” value with HUVEC cells is “+3%”. The “Inhibition of MEK or Erk phosphorylation” value in the data set with FAK pathway (250, 500 nM inhibitor) is “observed only at the higher inhibitor concentration”. The “phosphorylation of FAK on Tyr397 and Src” value with FAK pathway (two inhibitor concentrations (250, 500 nM)) is “inhibition of the phosphorylation of FAK on Tyr^397 and Src”.

With ^18F-fluorodeoxyglucose [^18F-FDG], in data set [1], the “discrimination of metastatic disease from inflammation” value was “failed to detect metastatic disease, while identifying inflammatory and other metabolically active sites”.

As to cRGD, the “published blood T1/2 / blood residence half-time” value in data set [2] was “about 13 minutes”.
